Test [1] has as its system PDGFRα V561D gene-introduced cells (PC-9). In words: MTS assay of living cells, PDGFRα V561D gene-introduced PC-9 cells cultured 72 hours with drug. Format: cell-based, human. The method, then: (§1) PC-9 cells or cells obtained by introducing the oncogene, the PDGFRα V561D gene into PC-9 cells in Example 4 were seeded in a 96-well plate. The cells were cultured for 72 hours in medium containing gefitinib at various concentrations, and then living cells were quantified by an MTS assay.
The cells obtained by introducing the PDGFRα V561D gene into PC-9 cells in Example 4 were seeded in a 96-well plate. The cells were cultured in medium containing a PDGFRα inhibitor, imatinib at various concentrations or medium containing 1 μM gefitinib and imatinib at various concentrations for 72 hours, and then living cells were quantified by the MTS assay.
On the technique in general: Tetrazolium assays rely on reduction of a dye to a coloured formazan, in cell work by metabolically active cells.

In a further test the test system is PC-9 cells. Kind of test: MTS assay of living cells, PC-9 cells cultured 72 hours with drug. The class given is cell-based, human. To be noted: gefitinib at various concentrations, FIG. 5. The method, then: as §1

`COc1cc2ncnc(Nc3ccc(F)c(Cl)c3)c2cc1OCCCN1CCOCC1` [gefitinib]: the “proliferation of the PDGFRα V561D gene-introduced cells” value in test [1] (gefitinib at various concentrations, FIG. 5) is “not inhibited”; in test [1] (in the presence of 1 μM gefitinib (medium with imatinib at various concentrations), FIG. 6), “inhibited in the presence of 1 μM gefitinib”. Also, the “proliferation of PC-9 cells” value in the test with PC-9 cells is listed as “inhibited by gefitinib in a dose dependent manner”.
Regarding `Cc1ccc(NC(=O)c2ccc(CN3CCN(C)CC3)cc2)cc1Nc1nccc(-c2cccnc2)n1` [imatinib], the “proliferation of the PDGFRα V561D gene-introduced cells” value in test [1] (imatinib at various concentrations in the presence of 1 μM gefitinib, FIG. 6) was “inhibited by the PDGFRα inhibitor, imatinib in a dose dependent manner”.

For the origin of these results see patent US9157905B2, “Method for identifying oncogene, method for establishing oncogene-expressing cell, and method of screening oncogene targeting drug” (FUJIREBIO INC., priority 2010, dated 2015).
